Test results taken from PubChem BioAssay (NCI).
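These data come from cells grown in 96-well plates and exposed to compound for 48 hours at five concentrations. TGI: total growth inhibition.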

Experiments:
Experiment in all cases: inhibition of tumour cell growth, NCI panel, 48 h
SN12C renal = system: SN12C renal
K-562 leukemia = system: K-562 leukemia
OVCAR-3 ovarian = system: OVCAR-3 ovarian
SF-295 CNS = system: SF-295 CNS
SK-MEL-5 melanoma = system: SK-MEL-5 melanoma
UACC-257 melanoma = system: UACC-257 melanoma
HL-60(TB) leukemia = system: HL-60(TB) leukemia
SK-OV-3 ovarian = system: SK-OV-3 ovarian
T-47D breast = system: T-47D breast
RXF 393 renal = system: RXF 393 renal
DU-145 prostate = system: DU-145 prostate
UO-31 renal = system: UO-31 renal
SF-268 CNS = system: SF-268 CNS
UACC-62 melanoma = system: UACC-62 melanoma
SF-539 CNS = system: SF-539 CNS
TK-10 renal = system: TK-10 renal
SNB-75 CNS = system: SNB-75 CNS

Row | Compound | TGI (SN12C renal) [µM] | TGI (K-562 leukemia) [µM] | TGI (OVCAR-3 ovarian) [µM] | TGI (SF-295 CNS) [µM] | TGI (SK-MEL-5 melanoma) [µM] | TGI (UACC-257 melanoma) [µM] | TGI (HL-60(TB) leukemia) [µM] | TGI (SK-OV-3 ovarian) [µM] | TGI (T-47D breast) [µM] | TGI (RXF 393 renal) [µM] | TGI (DU-145 prostate) [µM] | TGI (UO-31 renal) [µM] | TGI (SF-268 CNS) [µM] | TGI (UACC-62 melanoma) [µM] | TGI (SF-539 CNS) [µM] | TGI (TK-10 renal) [µM] | TGI (SNB-75 CNS) [µM]
1 | COc1cc(C(CN)N(C)C)cc(OC)c1OC (stereo not drawn) | > 100 | > 100 | > 100 | > 100 | > 100 | > 100 | > 100 | > 100 | > 100 | > 100 | > 100 | > 100 | > 100 | > 100 | > 100 | > 100 | –
2 | O=c1cc2oc3ccc4ccccc4c3cc-2c(=O)[nH]1 | – | 82.1 | 24.4 | 37.1 | 29.3 | 30.6 | 4.18 | 34.5 | – | – | 27.6 | 23.5 | 28.4 | 32.5 | 25 | – | –
3 | C[n+]1ccccc1/C=C/c1ccc2c(c1)OCO2 | > 10 | > 10 | > 10 | > 10 | > 10 | > 10 | > 10 | > 10 | > 10 | > 10 | > 10 | – | > 10 | > 10 | > 10 | > 10 | –
4 | COc1cccc(N2CCc3c(C)c(C#N)c4nc5ccccc5n4c32)c1 | > 100 | > 100 | > 100 | > 100 | > 100 | > 100 | > 100 | > 100 | – | > 100 | > 100 | > 100 | > 100 | > 100 | > 100 | > 100 | > 100
5 | O=C1c2ccccc2C(=O)c2[nH]c(=O)c(/C=N/Nc3ccc([N+](=O)[O-])cc3)nc21 | 37.2 | > 65.4 | > 25.3 | 12.4 | 2.82 | 5.88 | – | > 47.3 | > 95 | 33.4 | 2.88 | > 48 | 29.6 | 4.16 | 19.2 | 51.2 | –
6 | CCC(=O)NCC1(c2c[nH]c3ccccc23)SCCS1 | > 100 | > 100 | > 100 | > 100 | > 100 | > 100 | > 100 | > 100 | – | – | – | – | > 100 | > 100 | > 100 | > 100 | > 100
7 | COc1ccccc1OCc1nnc(SCC(=O)O)n1-c1ccccc1 | > 100 | – | > 100 | > 100 | > 100 | > 100 | > 100 | > 100 | – | – | – | > 100 | > 100 | > 100 | > 100 | > 100 | > 100
8 | CC(=O)C1CC2(c3ccccc3)C(=O)c3ccccc3N2O1 (stereo not drawn) | > 100 | > 100 | – | > 100 | > 100 | > 100 | > 100 | > 100 | – | > 100 | – | > 100 | > 100 | > 100 | > 100 | – | > 100
9 | N[C@H]1CCc2c1nc1c(c2-c2ccccc2)CC[C@@H]1N | > 100 | 26.6 | – | 45.5 | 29.7 | – | 46.4 | – | – | – | > 100 | – | 59.8 | – | 31.1 | > 100 | 29.5
10 | CCOP(=O)(C/C(=N/NC(C)(C)C)C(=O)Nc1nc2ccc(C)cc2s1)OCC | > 100 | > 100 | > 100 | > 100 | > 100 | > 100 | > 100 | > 100 | – | > 100 | – | > 100 | > 100 | > 100 | > 100 | > 100 | > 100
11 | Cc1ccccc1N=Nc1ccc(N=Nc2c(O)ccc3cc(S(=O)(=O)O)cc(S(=O)(=O)O)c23)c(C)c1 | – | > 100 | > 100 | > 100 | > 100 | > 100 | > 100 | > 100 | – | > 100 | – | > 100 | > 100 | > 100 | > 100 | > 100 | > 100
12 | CC1(Br)C(=O)NC(=O)N([C@H]2C[C@H](O)[C@@H](CO)O2)C1N=[N+]=[N-] (stereo partly drawn) | > 100 | > 100 | > 100 | > 100 | > 100 | > 100 | > 100 | > 100 | – | > 100 | – | > 100 | > 100 | > 100 | > 100 | > 100 | > 100
13 | CN(C)CC1CCC(CN(C)C)C1=NO (stereo not drawn) | > 100 | > 100 | > 100 | > 10 | > 100 | > 100 | – | – | – | > 100 | – | > 100 | > 100 | > 100 | > 100 | > 100 | > 10
14 | O=c1[nH]nc2c3n[nH]c(=O)n3c3ccccc3n12 | > 100 | > 100 | > 100 | > 100 | > 100 | > 100 | – | > 100 | – | > 100 | – | > 100 | > 100 | > 100 | > 100 | > 100 | > 100
15 | C/C(CC(=O)Nc1ccc(C)cc1)=N\NC(N)=S | – | > 100 | > 100 | > 100 | > 100 | > 100 | > 100 | > 100 | – | > 100 | – | > 100 | > 100 | > 100 | > 100 | > 100 | > 100
